Source: patent publication US8945595B2, “Insect repellent and attractants” (The Regents of the University of California, priority 2009, dated 2015)
Entries after “also recorded” stand apart in the source; their conditions may differ.

System: wild-type Drosophila
Assay: T-maze choice assay, avoidance behavior to CO2, wild-type flies
Format: in vivo
Details: 0.67% CO2; 1-hexanol 10^-1, 2,3-butanedione 10^-2
Description: (a) A t-maze is used to show preference to a test odor or to a solvent. Flies are starved 24 hrs prior to assay. All assays performed for 1-min in the dark. A negative preference index indicates avoidance. (a) Flies in a T-maze were offered a choice between a 15 ml tube infused with 0.1ml of CO2 prior to start of assay, and another that was infused with air. (b) wildtype and Or83b−/− flies were presented with CO2, a mixture of CO2 and 2,3-butanedione (d4on), or d4on alone. (c) Flies were exposed to 10 ul d4on 10^−2 for 1 min, allowed to recover for 2 min in clean air and then assayed for avoidance to CO2. A control exposure to 1 min of 2-methylphenol (2 mpol) at 10^−2 and then a recovery period of 2 min is also assayed for avoidance behavior to CO2. (d) Flies are exposed to d4on for 1 min, allowed to recover for 2 min, and then assayed for behavior to ethyl acetate (2AC). Behavior to 2AC without pre-exposure is also measured. […]
T-maze behavioral testing using Drosophila stress odour, CO2, and mixtures were using techniques known in the art, with some modifications. […] The avoidance response was calculated as a Preference Index (PI)=(number of flies in test arm−number of flies in control arm)/(total number of flies in assay). […] The avoidance response was calculated as a Preference Index (PI)=(number of flies in test arm−number of flies in control arm)/(total number of flies in assay). […]

SMILES	avoidance behavior to CO2 (Preference Index)
CCCCCCO [1-hexanol]	reduction in mean avoidance behavior
CC(=O)C(C)=O [2,3-butanedione]	reduction in mean avoidance behavior; also recorded: abolished
